Laboratory results from publication PMC12040169 (PLOS Biology, 2025).

Experiment: in vitro
Conditions: human, hela cells, % viability

Point of comparison: CCOC(=O)c1cnc(SC)nc1NCCc1c[nH]c2cc(F)ccc12 [CBK092315], viability at 28.5 h, 10 µM 96%. Against it:
- COc1ccc(N2CCN(C(=O)CCC(=O)c3cccs3)CC2)cc1 [CBK091413] — lower, 94.3%
- CCCCC(CC)C(=O)N1CCN(c2ccc(OC)cc2)CC1 (stereo not shown) [CBK091414] — higher, 99.9%
- COc1ccc(N2CCN(C(=O)CCC(F)(F)F)CC2)cc1 [CBK091419] — higher, 100%
- CC(C)Nc1cncc(Sc2cccc(N)c2)n1 [CBK091434] — higher, 108%
- CC(C)Nc1cncc(Sc2ccccc2O)n1 [CBK091438] — lower, 88%
- COc1ccccc1N1CCN(C(=O)CCC(=O)c2cccs2)CC1 [CBK091498] — higher, 109%
- NC(=O)CN1CCCN(c2cc(OCCc3c[nH]c4ccccc34)ncn2)CC1 [CBK091546] — higher, 96.6%
- Clc1ccc(COc2ccnc(N3CCCNCC3)n2)cc1Cl [CBK091550] — lower, 90%
- O=C(c1ccccc1)c1ccc2[nH]nnc2c1 [CBK091608] — lower, 94.2%
- S=C(NCc1ccccc1)Nc1ccccc1 [CBK091617] — higher, 105%
- COc1ccc2[nH]c(SCC(=O)O)nc2c1 [CBK091620] — lower, 91%
- O=C1CC(c2cccs2)Sc2nc3ccccc3n21 (stereo not shown) [CBK091627] — higher, 110%
- COCCNC(=O)c1c(NC(=O)c2ccccc2C)sc2c1CCCC2 [CBK091645] — lower, 83.9%
- CC1=C(C(=O)OCC(C)C)C(c2ccc(C)cc2)N2C(=O)C(C)SC2=N1 (stereo not shown) [CBK091646] — lower, 92.8%
- CCCNc1nc(Cl)nc(NC(C)(C)C)n1 [CBK091674] — lower, 86.3%
- Cc1ccc(CNS(=O)(=O)N(C)C)cc1 [CBK091778] — lower, 80.9%
- O=C(c1cccc(C(=O)N(Cc2ccccc2)c2ccccn2)c1)N(Cc1ccccc1)c1ccccn1 [CBK091794] — higher, 111%
- CN(CC(=O)N1CCCCCC1)S(=O)(=O)c1cc(Cl)ccc1Cl [CBK091841] — lower, 92.4%
- COc1ccc(-c2cc(=O)[nH]c(SCC(=O)Nc3ccc(C)cc3)n2)cc1 [CBK091867] — lower, 95.8%
- CSc1nc2sc3c(c2c(=O)n1-c1ccccc1C)CC(C)(C)OC3 [CBK091875] — higher, 99.1%
- NC(=O)C1(N2CCCCC2)CCN(C(=S)NC2CCCC2)CC1 [CBK091884] — lower, 88.1%
- CCOC(=O)C1=C(C)N(CC)C(=O)NC1c1cc(OC)c(OC)c(OC)c1 (stereo not shown) [CBK091912] — higher, 98.3%
- CCOc1ccccc1N1CCN(C(=O)c2cc(-c3ccccc3C)nc3ccccc23)CC1 [CBK091950] — higher, 104%
- O=C(NC(=S)Nc1ccc(Br)cc1)c1ccccc1 [CBK092022] — lower, 83.5%
- O=C(NC(=S)Nc1ccccc1)c1cncc(Br)c1 [CBK092040] — lower, 91.2%
- CCOc1cccc(C(=O)NC(=S)Nc2nc(C)c(C(=O)OC)s2)c1 [CBK092056] — lower, 93.6%
- O=C(Nc1ccccc1Br)C1CCCC1 [CBK092059] — higher, 111%
- Cc1cc(C)nc(SCC(=O)c2ccc(F)cc2)n1 [CBK092116] — lower, 82.1%
- O=c1c2ccccc2[nH]c(=S)n1CCCN1CCOCC1 [CBK092141] — lower, 88.1%
- c1ccc(OCCCCN2CCCC23CCc2[nH]c4ccccc4c2C3)cc1 (stereo not shown) [CBK092200T] — lower, 89.8%
- CN(C)CC(=O)N1CN(C(=O)c2cccc(Br)c2)C(C)(C)C1 [CBK092206C] — higher, 97.4%
- COc1cc(OC)nc(Oc2ccccc2C(=O)O)n1 [CBK092218] — lower, 84.6%
- COC(=O)c1cccc(Oc2nc(OC)cc(OC)n2)c1 [CBK092219] — lower, 66.1%
- COC(=O)c1ccc(Oc2nc(OC)cc(OC)n2)cc1 [CBK092221] — higher, 113%
- CC1(C)OC(NC2CC3CCC2C3)=NC1=O (stereo not shown) [CBK092237] — lower, 82.8%
- CC[C@H]1CCCCN1C(=O)c1sc2ncccc2c1Cl [CBK092276] — higher, 104%
- Cc1cnc2c(N3CCCC3)nc(-c3cccnc3)cn12 [CBK092277] — higher, 98.5%
- COc1nn(C)c(CO)c1Cc1c(Cl)cccc1Cl [CBK092285T] — lower, 94.2%
- COc1cc(-c2ccc3c(c2)COC2(CCCNC2)O3)cc(OC)c1OC (stereo not shown) [CBK092299] — lower, 93%
- O=C(NCc1csc(-c2ccccc2)n1)c1ccccc1OC(F)F [CBK092332] — lower, 95%
- CC(=O)[C@H]1C[C@@H](CC(=O)NCc2csc(-c3ccccc3)n2)C1(C)C [CBK092335] — higher, 109%
- O=C(NCc1csc(-c2ccccc2)n1)C(F)(F)F [CBK092340] — higher, 102%
- O=C(CCC(F)(F)F)NCc1csc(-c2ccccc2)n1 [CBK092342] — lower, 91%
- O=C(NCc1csc(-c2ccccc2)n1)C1CC=CCC1 (stereo not shown) [CBK092348] — lower, 94.4%
- Cc1nc(-c2ccccc2)sc1CNC(=O)COc1ccc(F)cc1 [CBK092350] — lower, 86.3%
- Cc1nc(-c2ccccc2)sc1CNC(=O)c1ccc([N+](=O)[O-])o1 [CBK092352] — lower, 54.8%
- COc1ccc(CCCC(=O)NCc2sc(-c3ccccc3)nc2C)cc1OC [CBK092353] — lower, 85.2%
- COC(C(=O)NCc1sc(-c2ccccc2)nc1C)c1ccccc1 (stereo not shown) [CBK092362] — lower, 93.1%
- Cc1nc(-c2ccccc2)sc1CNC(=O)C(C)c1ccc([N+](=O)[O-])cc1 (stereo not shown) [CBK092364] — higher, 98%
- O=C1CSC2(C(=O)N(Cc3ccccc3)c3ccccc32)N1c1ccccc1 (stereo not shown) [CBK092391] — higher, 100%
- O=C1CSC2(C(=O)N(Cc3cccc(C(F)(F)F)c3)c3ccccc32)N1c1ccccc1 (stereo not shown) [CBK092392] — higher, 108%
- COc1ccc(N2C(=O)CSC23C(=O)N(Cc2ccc(Cl)cc2)c2ccccc23)cc1 (stereo not shown) [CBK092396] — lower, 91.6%
- COC(=O)c1ccc(CNc2nc(OC)cc(OC)n2)cc1 [CBK093391] — lower, 95%
- Nc1nn2c(c1Cc1c(Cl)cccc1Cl)OC(=O)CCC2=O [CBK093439] — higher, 113%
- COc1ccc(C(=O)N(CCC(C)C)Cc2nc(C)c(C)n2Cc2ccccc2Cl)c(OC)c1 [CBK093441] — lower, 86.2%
- Cc1ccc(N2C(=O)CSC23C(=O)Nc2ccc(Br)cc23)cc1 (stereo not shown) [CBK093453] — lower, 84.4%
- O=C1CSC2(C(=O)Nc3ccccc32)N1c1ccc2ccccc2c1 (stereo not shown) [CBK093461] — higher, 106%
- Cc1ccc(N2C(=O)CSC23C(=O)Nc2ccccc23)cc1Br (stereo not shown) [CBK093472] — higher, 104%
- O=C(NCc1ccccc1)c1ccc(N2C(=O)CSC23C(=O)Nc2ccccc23)cc1 (stereo not shown) [CBK093476] — higher, 109%
- O=C1CSC2(C(=O)Nc3ccccc32)N1c1cccc(F)c1 (stereo not shown) [CBK093488] — higher, 99.2%
- Clc1cncc(NCCc2c[nH]c3ccccc23)n1 [CBK093514] — lower, 56.8%
- Cc1ccc(S(=O)(=O)NCC2CCC(C(=O)Oc3ccc4ccc(=O)oc4c3)CC2)cc1 (stereo not shown) [CBK093519] — lower, 87.9%
- CC(C)Nc1nccnc1Sc1cccc(C(=O)O)c1 [CBK093581] — higher, 96.6%
- CC(C)Nc1cc(Sc2cccc(C(=O)O)c2)ncn1 [CBK093583] — higher, 117%
- O=C(O)c1cccc(Sc2cc(N3CCCC3)ncn2)c1 [CBK093586] — higher, 113%
- O=C(O)c1cccc(Sc2cc(C(F)(F)F)ccn2)c1 [CBK093590] — lower, 88.7%
- CCc1[nH]nc(C)c1Cc1c(Cl)cccc1Cl [CBK093598] — higher, 106%
- CN(c1nc(-c2cccnc2)cn2ccnc12)C1CCCCC1 [CBK093609] — lower, 87%
- CC(C)(C)c1ccc(S(N)(=O)=O)cc1NC(=O)Nc1cccc(F)c1 [CBK093643] — higher, 100%
- NC1=NNC2=C(c3ccc(Cl)cc3Cl)NNN12 [CBK093660] — lower, 86.4%
- COc1ccc(C2=C3NN=C(N)N3NN2)cc1 [CBK093662] — lower, 84.8%
- NC1=C2NC(c3cccc(C(=O)O)c3)=NN2N(c2ccccc2)N1 [CBK093663] — higher, 98.7%
- CC(C)Nc1nccnc1Sc1cccc(O)c1 [CBK093725] — higher, 111%
- CC(C)Nc1cncc(Sc2ccccc2N)n1 [CBK093726] — lower, 91.7%
- CC(C)Nc1cc(Sc2ccccc2N)ncn1 [CBK093729] — lower, 91.6%
- CC(C)Nc1nc2cc(Cl)c(Cl)cc2nc1Sc1cccc(O)c1 [CBK093732] — lower, 94.8%
- c1ccc(Sc2nccnc2N2CCCC2)nc1 [CBK093734] — lower, 87.7%
- Cc1csc(Sc2nccnc2N2CCCC2)n1 [CBK093735] — lower, 90.3%
- COCc1nnc(Sc2nccnc2N2CCCC2)s1 [CBK093736] — lower, 95.4%
- Cc1csc(Sc2cc(N3CCCC3)ncn2)n1 [CBK093745] — higher, 100%
- COCc1nnc(Sc2cc(N3CCCC3)ncn2)s1 [CBK093746] — lower, 88.4%
- Oc1cccc(Sc2cc(N3CCCC3)ncn2)c1 [CBK093749] — higher, 97.4%
- Nc1nnc(Sc2nc3ccccc3nc2N2CCCC2)s1 [CBK093750] — lower, 88.4%
- Cc1nnc(Sc2nc3ccccc3nc2N2CCCC2)s1 [CBK093751] — lower, 89.1%
- Oc1cccc(Sc2nc3ccccc3nc2N2CCCC2)c1 [CBK093753] — lower, 88.5%

Same assay, conditions: human, hela cells, % viability, bulk resorufin, single well

Point of comparison: COc1ccc(Cn2nc(C(=O)O)c3ccccc32)cc1OC [CBK093529], viability at 28.5 h, 10 µM 93%. Against it:
- CC1CC1C(=O)N1CCC(C#N)(c2ccccc2)CC1 (stereo not shown) [CBK091402] — higher, 99%
- COc1ccc(-c2ccc3c(c2)OC2(CCNCC2)O3)c(OC)c1 [CBK091451] — higher, 93.2%
- COc1cc(C(=O)Nc2ccc3c(c2)COC2(CCNCC2)O3)cc(OC)c1OC [CBK091531T] — lower, 92.3%
- COC(=O)c1nn(Cc2ccc(OC)cc2)c2ccccc12 [CBK093526] — lower, 31.4%
- O=C(Nc1cccc(-c2ccc3c(c2)COC2(CCNCC2)O3)c1)c1cnccn1 [CBK093670] — lower, 90.5%
- CCc1ccc(C(=O)Nc2cccc(-c3ccc4c(c3)COC3(CCNCC3)O4)c2)cc1 [CBK093680] — lower, 67.5%
- CC1(C)CC(=O)C=C(C(=O)Nc2cccc(-c3ccc4c(c3)COC3(CCNCC3)O4)c2)O1 [CBK093704] — higher, 97.8%
